Source: ChEMBL document CHEMBL4808186, “Structure-Based Discovery of Pyrimidine Aminobenzene Derivatives as Potent Oral Reversal Agents against P-gp- and BCRP-Mediated Multidrug Resistance” (J Med Chem, 2021)
pIC50: −log10 of the molar value.

What was measured:
K562 = assay: Cytotoxicity against human K562 cells incubated for 48 hrs by MTT assay; assay type: functional, cell-based; details: K562, 48 h
K562/A02 = assay: Cytotoxicity against P-gp overexpressing human K562/A02 cells incubated for 48 hrs by MTT assay; assay type: functional, cell-based; details: K562/A02, 48 h, read-out: IC50
MDCK-II [1] = assay: cells; details: Canis lupus familiaris, 48 h
Description: Cytotoxicity against BCRP-overexpressing MDCK-II cells incubated for 48 hrs by MTT assay

[2] = n-Octanol/water partition coefficient, logP of the compound by UHPLC analysis; assay type: physicochemical
MDCK-II [3] = assay: cells; details: Canis lupus familiaris, 48 h; remark: listed apart in the source
Description: Cytotoxicity against MDCK-II cells incubated for 48 hrs by MTT assay

Row | SMILES | pIC50 (K562) | pIC50 (K562/A02) | pIC50 (MDCK-II [1]) | logP [2] | pIC50 (MDCK-II [3])
1 | COc1cc2c(cc1OC)CN(CCNC(=O)c1ccc(C)c(Nc3nccc(-c4cccnc4)n3)c1)CC2 | < 4.00 | < 4.00 | < 4.00 | 0.8 | < 4.00
2 | COc1cc2c(cc1OC)CN(CCc1ccc(NC(=O)c3cc(=O)c4c(O)cccc4o3)cc1)CC2 | < 4.00 | 4.34 | 4.16 | 1.78 | 4.07
3 | COc1ccc(-c2ccnc(Nc3cc(C(=O)NCCN4CCc5cc(OC)c(OC)cc5C4)ccc3C)n2)cc1 | < 4.00 | 4.19 | 4.26 | 2.16 | < 4.00
4 | COc1cc2c(cc1OC)CN(CCc1ccc(NC(=O)c3ccc(C)c(Nc4nccc(-c5ccco5)n4)c3)cc1)CC2 | < 4.00 | < 4.00 | < 4.00 | 1.7 | < 4.00
5 | COc1cc2c(cc1OC)CN(CCNC(=O)c1ccc(C)c(Nc3nccc(-c4ccccc4O)n3)c1)CC2 | < 4.00 | 4.28 |  | 2.31 | 4.04
6 | COc1cc2c(cc1OC)CN(CCNC(=O)c1ccc(C)c(Nc3nccc(-c4ccc(C)cc4)n3)c1)CC2 | 4.13 | 4.23 | 4.38 |  | < 4.00
7 | COc1cc2c(cc1OC)CN(CCNC(=O)c1ccc(C)c(Nc3nccc(-c4ccccn4)n3)c1)CC2 | < 4.00 | 4.05 | 4.19 | 1.71 | < 4.00
8 | COc1cc2c(cc1OC)CN(CCc1ccc(NC(=O)c3ccc(C)c(Nc4nccc(-c5ccc(C)cc5)n4)c3)cc1)CC2 | < 4.00 |  | 4.21 |  | < 4.00
9 | COc1cc2c(cc1OC)CN(CCNC(=O)c1ccc(C)c(Nc3nccc(-c4ccccc4)n3)c1)CC2 | < 4.00 | 4.18 | 2.32 | 1.9 | < 4.00
10 | COc1cc2c(cc1OC)CN(CCc1ccc(NC(=O)c3cc(=O)c4ccccc4o3)cc1)CC2 | < 4.00 | < 4.00 | < 4.00 | 0.93 | < 4.00
11 | COc1cc2c(cc1OC)CN(CCNC(=O)c1ccc(C)c(Nc3nccc(-c4cccs4)n3)c1)CC2 | < 4.00 | 4.14 | 4.21 | 1.94 | < 4.00
12 | COc1cc2c(cc1OC)CN(CCc1ccc(NC(=O)c3cc(=O)c4cc(F)ccc4o3)cc1)CC2 | < 4.00 | 4.09 | < 4.00 |  | < 4.00
13 | COc1cc2c(cc1OC)CN(CCNC(=O)c1ccc(C)c(Nc3nccc(-c4ccc(F)cc4)n3)c1)CC2 | < 4.00 | 4.12 | 4.24 | 2.04 | < 4.00
14 | COc1cc2c(cc1OC)CN(CCc1ccc(NC(=O)c3ccc(C)c(Nc4nccc(-c5cccc(O)c5)n4)c3)cc1)CC2 | < 4.00 | 4.07 | < 4.00 | 2.28 | < 4.00
15 | COc1cc2c(cc1OC)CN(CCc1ccc(NC(=O)c3cc(=O)c4c(OC)cccc4o3)cc1)CC2 | < 4.00 | < 4.00 | < 4.00 | 0.76 | < 4.00
16 | COc1cc2c(cc1OC)CN(CCc1ccc(NC(=O)c3ccc(C)c(Nc4nccc(-c5ccc(F)cc5)n4)c3)cc1)CC2 | < 4.00 | < 4.00 | < 4.00 | 1.19 | < 4.00
17 | COc1cc2c(cc1OC)CN(CCc1ccc(NC(=O)c3ccc(C)c(Nc4nccc(-c5ccccn5)n4)c3)cc1)CC2 | < 4.00 | 4.05 | < 4.00 | 1.73 | < 4.00
18 | COc1cc2c(cc1OC)CN(CCc1ccc(NC(=O)c3ccc(C)c(Nc4nccc(-c5cccs5)n4)c3)cc1)CC2 | < 4.00 | < 4.00 | < 4.00 | 1.48 | < 4.00
19 | COc1cc2c(cc1OC)CN(CCNC(=O)c1ccc(C)c(Nc3nccc(-c4cccc(O)c4)n3)c1)CC2 | < 4.00 | 4.24 | 4.14 |  | < 4.00
